pIC50: −log10 of the molar value. Values joined by “and” are separate entries in the source; they are usually repeats but may differ in a detail not shown here. Identical values can stand only once. Like-named read-outs stand apart in the source and are kept apart here.
Legend:
[1] = molecular target: C. elegans (N2) complex I (NADH:ubiquinone oxidoreductase) (Caenorhabditis elegans, UniProt P24887+Q93873+Q94360); test: biochemical; type: biochemical; conditions: for Log IC50 C. elegans complex I: log10 of IC50 in µM
Chain of C. elegans (N2) complex I (NADH:ubiquinone oxidoreductase) (Q94360 17-199): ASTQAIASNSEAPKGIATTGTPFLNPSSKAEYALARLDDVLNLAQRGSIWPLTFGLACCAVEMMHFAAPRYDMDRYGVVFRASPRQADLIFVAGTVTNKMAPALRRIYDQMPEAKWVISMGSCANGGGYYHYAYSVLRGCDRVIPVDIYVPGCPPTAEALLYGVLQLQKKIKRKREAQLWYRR
Chain of C. elegans (N2) complex I (NADH:ubiquinone oxidoreductase) (P24887 whole entry): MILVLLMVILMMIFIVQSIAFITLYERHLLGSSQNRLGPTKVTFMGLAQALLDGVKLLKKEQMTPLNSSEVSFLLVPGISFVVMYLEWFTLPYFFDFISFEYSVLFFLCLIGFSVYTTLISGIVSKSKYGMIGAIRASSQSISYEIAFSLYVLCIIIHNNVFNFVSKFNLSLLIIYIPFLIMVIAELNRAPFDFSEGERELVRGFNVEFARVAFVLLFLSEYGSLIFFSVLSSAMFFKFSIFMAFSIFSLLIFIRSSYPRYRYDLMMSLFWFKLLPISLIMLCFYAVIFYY
Chain of C. elegans (N2) complex I (NADH:ubiquinone oxidoreductase) (Q93873 31-482): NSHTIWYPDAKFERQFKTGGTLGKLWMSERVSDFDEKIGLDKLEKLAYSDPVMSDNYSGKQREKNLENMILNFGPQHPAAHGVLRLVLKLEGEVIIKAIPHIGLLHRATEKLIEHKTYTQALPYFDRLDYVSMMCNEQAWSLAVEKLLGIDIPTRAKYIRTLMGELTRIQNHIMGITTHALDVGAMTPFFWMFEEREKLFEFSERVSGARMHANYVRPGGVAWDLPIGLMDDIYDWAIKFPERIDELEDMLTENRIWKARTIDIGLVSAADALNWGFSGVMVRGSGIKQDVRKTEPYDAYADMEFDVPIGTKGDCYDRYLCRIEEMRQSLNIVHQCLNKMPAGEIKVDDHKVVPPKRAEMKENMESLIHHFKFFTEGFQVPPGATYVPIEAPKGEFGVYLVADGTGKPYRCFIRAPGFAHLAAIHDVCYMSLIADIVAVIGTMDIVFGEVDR
Experimental: (§1) Mitochondria were isolated from the following free-living nematode strains: C. elegans—N2, CB3474, ECA882, ECA917, ECA1075, ECA1080; C. briggsae—AF16; P. pacificus—PS312; and P. hermaphrodita—B178. With the exception of the P. hermaphrodita strain B178, adult worms of each strain were grown in bulk through liquid culture to obtain mitochondria in sufficient quantities. Due to poor growth in liquid media, mixed stage populations of P. hermaphrodita were washed off and collected from NGM plates seeded with OP50. The isolation of mitochondria from all free-living nematode strains followed the protocol previously outlined in Burns et al.[24]. In brief, a 1 L saturated culture of E. coli HB101 was concentrated 20-fold in 50 mL complete S-medium. ~500,000 L1 worms synchronized from an embryo preparation performed the day prior were added to the S-media/HB101 suspension and grown to adulthood over the course of 3.5 days at 20 °C with shaking at 165 rpm. Following growth, worms were collected in 10 ×15 mL conical tubes and washed 7 times in M9 buffer. Worm suspensions were then combined into a single 15 mL conical tube and diluted to a final volume of 15 mL with M9 buffer. 1 mL aliquots of worm suspension were then distributed to 15 × 1.5 mL screw-cap microcentrifuge tubes and were pelleted at 500 g for 1 min. Excess M9 was aspirated without disturbing the worm pellet. 600 μL ice-cold isolate buffer A (250 mM sucrose, 10 mM Tris (pH 7.5), 1 mM EDTA, 1 mM PMSF (freshly prepared)) and 300 μL cold glass beads were then added to each tube. Tubes were incubated on ice for 10 min, and the worms were then lysed by bead beating (6 x 30 s, with 1 min cooling intervals). Tubes containing worm lysate were centrifuged at 1,000 g for 10 min at 4 °C and the supernatant was transferred to 15 new microcentrifuge tubes on ice. The tubes were centrifuged a second time at 1,000 g for 10 min at 4 °C and the supernatant was once again transferred to 15 new microcentrifuge tubes on ice. These tubes were then centrifuged at 16,000 g for 10 min at 4 °C. The resulting mitochondrial pellet was washed twice by re-suspension in 300 μL of ice-cold isolate buffer B (250 mM sucrose, 10 mM Tris (pH 7.5), 1 mM EDTA). Following the final wash, isolation buffer was aspirated from each tube and the pellets were flash-frozen in ethanol/dry ice and stored at −80 °C until needed.
(§2) The enzymatic activities of individual ETC complexes (I-IV) were assessed spectrophotometrically in isolated mitochondria using a Varioskan LUX Multimode plate reader (ThermoFisher Scientific). Mitochondrial pellets previously isolated were thawed on ice and resuspended in ice-cold isolation buffer (250 mM sucrose, 10 mM Tris (pH 7.5), 1 mM EDTA). The BCA assay (Walker, 1994) was used to quantify the protein concentration of mitochondria suspensions; solutions were diluted to a concentration of 0.2 mg/mL for use in all assays. For the complex I assay, mitochondria pellets were freeze-thawed on ice three times to increase enzyme accessibility. […] 20 μL mitochondria suspension was then added/mixed with a pipette to initiate the reaction. Immediately following the addition of mitochondria, absorbance was measured (complex I and II: 600 nm; complex III and IV: 550 nm) in 30 s intervals over 15 min. Enzymatic activity was determined in each reaction by plotting absorbance versus time and calculating the slope of the curve during the initial linear phase of the reaction. […] Percent activity of each complex was calculated by dividing the enzyme-specific activity of each well by the enzyme-specific activity of the corresponding solvent controls.
Chemical solutions were prepared in complex I assay buffer composed of 25 mM KPi buffer (pH 7.5), 3 mg/mL bovine serum albumin (BSA), 80 μM NADH, 60 μM decylubiquinone, 160 μM DCIP, 2 μM antimycin A and 2 mM KCN.
For preliminary screens of hit compounds, compounds were screened at 100 μM; data are the average of at least three biological replicates.

[2] = molecular target: C. elegans complex II (succinate dehydrogenase) (Caenorhabditis elegans, UniProt O62215+P41956+Q09545); test: In vitro complex II activity assay, C. elegans mitochondria; type: biochemical
Chain of C. elegans complex II (succinate dehydrogenase) (P41956 30-182): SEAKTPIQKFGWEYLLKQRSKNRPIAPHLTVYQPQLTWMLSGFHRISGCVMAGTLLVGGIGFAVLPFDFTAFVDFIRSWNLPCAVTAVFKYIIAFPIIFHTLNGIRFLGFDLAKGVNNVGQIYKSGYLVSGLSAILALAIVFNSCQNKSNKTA
Chain of C. elegans complex II (succinate dehydrogenase) (Q09545 22-298): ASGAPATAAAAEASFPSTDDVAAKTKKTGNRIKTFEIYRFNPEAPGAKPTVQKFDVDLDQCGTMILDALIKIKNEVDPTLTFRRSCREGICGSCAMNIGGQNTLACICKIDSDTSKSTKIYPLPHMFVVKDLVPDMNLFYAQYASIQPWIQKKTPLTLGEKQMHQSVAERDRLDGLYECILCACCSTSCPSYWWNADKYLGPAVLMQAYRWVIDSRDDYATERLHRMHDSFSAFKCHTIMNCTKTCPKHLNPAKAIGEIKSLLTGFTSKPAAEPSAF
Chain of C. elegans complex II (succinate dehydrogenase) (Q09508 32-646, further chain): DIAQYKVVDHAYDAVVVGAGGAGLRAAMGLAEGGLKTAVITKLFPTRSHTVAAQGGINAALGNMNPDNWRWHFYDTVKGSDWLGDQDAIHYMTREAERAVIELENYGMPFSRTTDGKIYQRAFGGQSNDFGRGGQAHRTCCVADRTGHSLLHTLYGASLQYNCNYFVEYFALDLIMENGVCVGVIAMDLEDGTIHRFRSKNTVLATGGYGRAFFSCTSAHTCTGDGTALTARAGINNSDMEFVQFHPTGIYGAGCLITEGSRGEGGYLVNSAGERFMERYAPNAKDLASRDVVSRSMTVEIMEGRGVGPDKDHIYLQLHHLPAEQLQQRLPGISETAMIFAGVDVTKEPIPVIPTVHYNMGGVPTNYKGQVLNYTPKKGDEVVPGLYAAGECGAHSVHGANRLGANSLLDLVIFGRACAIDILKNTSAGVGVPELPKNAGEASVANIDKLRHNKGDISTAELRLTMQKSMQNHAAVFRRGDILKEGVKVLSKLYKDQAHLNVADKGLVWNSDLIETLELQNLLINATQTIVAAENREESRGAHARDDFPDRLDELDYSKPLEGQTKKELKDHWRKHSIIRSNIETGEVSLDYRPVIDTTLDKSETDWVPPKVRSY
Chain of C. elegans complex II (succinate dehydrogenase) (O62215 31-145): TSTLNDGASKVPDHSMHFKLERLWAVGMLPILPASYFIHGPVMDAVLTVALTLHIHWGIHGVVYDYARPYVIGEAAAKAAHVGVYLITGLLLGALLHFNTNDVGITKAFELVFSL
Experimental: as §1, §2
Complex II (succinate dehydrogenase) activity was assessed using the DCIP-coupled method previously described in Burns et al.[24].
For preliminary screens of hit compounds, compounds were screened at 100 μM; data are the average of at least three biological replicates. The complex I and II activity assays were used for additional dose-response experiments.

[3] = system: C. elegans complex III (decylubiquinol-cytochrome C reductase); test: In vitro complex III activity assay, C. elegans mitochondria; type: biochemical, Caenorhabditis elegans; conditions: for CIII Activity: 100 μM inhibitor, in vitro activity relative to solvent control, N2 C. elegans mitochondria
Experimental: as §1, §2
Antimycin A-sensitive complex III (decylubiquinol-cytochrome C […]) activity was determined by measuring the reduction of cytochrome C (CytC) as optimized in Luo et al.[59]. Decylubiquinol for complex III assays was prepared fresh as described in Janssen and Boyle, 2019[60].

[4] = system: C. elegans complex IV (cytochrome C oxidase); test: In vitro complex IV activity assay, C. elegans mitochondria; type: biochemical, Caenorhabditis elegans; conditions: for CIV Activity: 100 μM inhibitor, in vitro activity relative to solvent control, N2 C. elegans mitochondria
Experimental: as §1, §2
Complex IV (cytochrome C oxidase) activity was determined by following the oxidation of CytC in the protocol outlined by Janssen and Boyle, 2019[60]. Reduced CytC was prepared fresh by adding 1 μL increments of 1 M dithiothreitol to a 1 mM solution of CytC and vortexing. A colour change from brown to orange/pink signals when CytC has been reduced.

[5] = system: ben-1 mutant (ECA882) C. elegans; test: microbe, parasite or virus in culture; conditions: Caenorhabditis elegans
Experimental: Liquid development and viability assays were adapted from a previously established chemical screening protocol (Burns et al.)[24]. In brief, a saturated culture of E. coli HB101 was concentrated 2-fold in liquid NGM and 40 μL of this suspension was distributed to each well of a 96-well flat-bottom culture plate. 0.5 μL chemical solution (or DMSO alone) was added to each well (1% DMSO v/v) using either a multi-channel pipette or a pinning tool (V&P Scientific). L1 worms synchronized from an embryo preparation performed the day prior were diluted to a concentration of ~2 worms/μL in M9 buffer; 10 μL worm suspension was then added to each well. Culture plates were sealed with parafilm and placed in a plastic container lined with wet paper towels to prevent evaporation. Containers were then incubated for 6 days at 20 °C with shaking at 165 rpm. Following incubation, 300 μL M9 was added to each well to decrease the turbidity of the HB101-NGM suspension. Single images of each microplate well were then taken on a Nikon Ti Eclipse inverted microscope (Nikon NIS Elements AR). Images were processed using Python scripts to isolate worm-associated pixels from background. Scores of worm development and viability were determined as the sum of worm-associated pixels in each well. Development/viability scores for each well were divided by the development /viability scores for the corresponding DMSO controls, resulting in a relative viability value for each chemical. At least three biological replicates were performed for each dose-response experiment; relative viability values were averaged across replicates. […]
anthelmintics. a. Chemical structures of four commercial benzimidazole anthelmintics (e.g., albendazole, […]
Dose response of four commercial […]
elegans strains: N2, wild type; ECA882, deletion (ben-1); ECA917, F200Y (ben-1); ECA1075, F167Y (ben-1); ECA1080, E198A (ben-1); CB3474, G104D (ben-1). The colour-coded scale denotes the phenotypic outcome of drug treatment (e.g., motility or viability) relative to DMSO controls; white/pale- […]
death and arrested development. c. […]
benzimidazole anthelmintics (blue) were conducted in C. elegans development and viability assays for wild type (N2) and ben-1 mutant (ECA882) C. elegans (see Supplementary Date File 1).
All data used for generation of dose-response curves is the mean of at least three […]
Supplementary Figure 7 (continued). Davie et al.

L1 wild-type C. elegans [6] = conditions: […]; for Relative Motility: relative to DMSO controls, single biological replicate
L1 wild-type C. elegans [7] = test: microbe, parasite or virus in culture; conditions: Caenorhabditis elegans, read-out: C. elegans KCN Survival Assay LC50, estimated from fitted dose-response curves; mean of at least two biological replicates
[8] = 100 μM of NPD compound, C. elegans mitochondria, individual biological replicates, 100 µM
[9] = 100 µM compound, relative to solvent control, mean (SEM)
[10] = 100 μM of NPD compound, C. elegans mitochondria, individual biological replicates
[11] = 100 μM of NPD compound, C. elegans mitochondria, mean of four biological replicates
[12] = read-out: C. elegans (ben-1) Development & Viability Assay LC50
[13] = read-out: C. elegans ben-1 log10 LC50 (converted)
[14] = in vitro complex I dose response on C. elegans mitochondria, average of at least two biological replicates, fit in R (DRC), read-out: IC50 C. elegans complex I
[15] = wild-type C. elegans mitochondria, estimated from fitted dose-response curves, read-out: C. elegans Complex I IC50
[16] = wild-type C. elegans mitochondria, read-out: C. elegans Complex I IC50
[17] = 50 μM compound, hit = relative motility below 0.25 3 hours after removal of KCN
[18] = 50 μM compound, worm motility 3 hours after removal of KCN

SMILES	LC50 [5, 12] [µM]	LC50 [5, 13] [µM]	pIC50 [1, 14]	Log IC50 C. elegans complex I ([1]; C. elegans mitochondria) [µM]	pIC50 [1, 15]	LC50 (L1 wild-type C. elegans [7]) [µM]	pIC50 [1, 16]	Screen "Hit" (L1 wild-type C. elegans [6]; [17])	Relative Motility (L1 wild-type C. elegans [6]; [18])	also measured
CCCCCC[C@H]1C(=O)O[C@H](C)[C@H](NC(=O)c2cccc(NC=O)c2O)C(=O)O[C@@H](C)[C@@H]1OC(=O)CC(C)C [Antimycin A, reference compound]										activity at 100 µM ([1]; 100 µM compound, relative to solvent control, mean (SEM), read-out: % Activity Complex I): 117%; activity at 100 µM ([1]; 100 μM inhibitor, in vitro activity relative to solvent control, N2 C. elegans mitochondria, Mean, read-out: CI Activity): 117%; activity at 100 µM ([1]; 100 μM inhibitor, in vitro activity relative to solvent control, N2 C. elegans mitochondria, single replicate, read-out: CI Activity): 119%; Percent in vitro activity, Complex I (single replicate Rep1-Rep4) [1, 8]: 116.806% and 115.361% and 116.592%; activity at 100 µM ([1]; 100 μM of NPD compound, C. elegans mitochondria, individual biological replicates, read-out: Percent in vitro activity, Complex I (single replicate Rep1-Rep4)): 119%; activity at 100 µM ([1]; 100 μM of NPD compound, C. elegans mitochondria, mean of four biological replicates, read-out: Percent in vitro activity, Complex I (Mean)): 117%; activity at 100 µM ([2]; 100 µM compound, relative to solvent control, mean (SEM), read-out: % Activity Complex II): 79.5%; activity at 100 µM ([2]; 100 μM inhibitor, in vitro activity relative to solvent control, N2 C. elegans mitochondria, Mean, read-out: CII Activity): 79.5%; Percent in vitro activity, Complex II (single replicate Rep1-Rep4) [2, 8]: 114.678% and 73.200% and 61.398% and 68.876%; activity at 100 µM ([2]; 100 μM of NPD compound, C. elegans mitochondria, mean of four biological replicates, read-out: Percent in vitro activity, Complex II (Mean)): 79.5%; % Activity Complex III [3, 9]: 0.00 (0.0) %; CIII Activity ([3]; Mean): 0.000%; CIII Activity ([3]; single replicate): 0.000%; Percent in vitro activity, Complex III (single replicate Rep1-Rep4) [3, 10]: 0.000%; Percent in vitro activity, Complex III (Mean) [3, 11]: 0.000%; % Activity Complex IV [4, 9]: 94.00 (1.10) %; CIV Activity ([4]; Mean): 94.002%; CIV Activity ([4]; single replicate): 97.456% and 95.348% and 87.857% and 95.349%; Percent in vitro activity, Complex IV (single replicate Rep1-Rep4) [4, 10]: 97.456% and 95.348% and 87.857% and 95.349%; Percent in vitro activity, Complex IV (Mean) [4, 11]: 94.002%
c1ccc2[nH]c(CSc3nc4ccccc4o3)nc2c1 [Compound 5668941]	123	123	4.71	1.29	4.71	26.8				Screen "Hit" (L1 wild-type C. elegans [6]; 50 μM, KCN survival assay, hit = relative motility below 0.25): Y (hits were identified as compounds that reduced relative motility below 0.25 (75% reduction)); Relative Motility (L1 wild-type C. elegans [6]; 50 μM, worm motility 3 hours after the removal of KCN (endpoint)): 0.130
CCc1ccc(CNc2nc3ccccc3n2C)cc1 [STK498539]	214	214	4.39	1.61		30.5	4.39	Y (hits were identified as compounds that reduced relative motility below 0.25 (75% reduction))	0.042	
C(=C\c1nc2ccccc2[nH]1)/c1ccccc1 [STK871091]	148	148			< 4.12	15		Y (hits were identified as compounds that reduced relative motility below 0.25 (75% reduction))	0.008	
CCc1ccc(OC(C)c2nc3ccccc3[nH]2)cc1 (centres unmarked) [STK914290]	227	228	4.15	1.85		22.4	4.15	Y (hits were identified as compounds that reduced relative motility below 0.25 (75% reduction))	0.082	

Reference: publication PMC11079024, “Identification of a family of species-selective complex I inhibitors as potential anthelmintics” (Nature Communications, 2024)
